Experimental data published in patent US20170360747A1, “USE OF ZILEUTON FOR THE TREATMENT OF NASAL POLYPS IN CYSTIC FIBROSIS PATIENTS” (CORNERSTONE THERAPEUTICS INC., priority 2011, published 2017).

Columns and labels:
[1] = system: nasal polyposis in patient with cystic fibrosis; assay: Case report Example 1: cystic fibrosis patient with bilateral nasal polyposis; type: in vivo, human
Protocol: A patient has a history of cystic fibrosis and chronic sinusitis. The patient complained of hyposmia and nasal congestion. […] Culture of the sinuses grew out Pseudomonas. Patient was prescribed ciprofloxacin per the sinus culture. […] Prior to prescribing oral zileuton, a liver function test was performed that was normal. Patient was given zileuton 1200 mg BID. Two months later patient came back with improved nasal congestion and smell. […] Since the patient's symptoms improved, the zileuton was eventually discontinued. After a few months the patient's sinus infection returned. Patient was placed on oral ciprofloxacin.

[2] = system: coughing in patient with cystic fibrosis and chronic sinusitis; assay: Case report Example 2: cystic fibrosis patient with chronic sinusitis and coughing; type: in vivo, human
Protocol: Patient failed medical treatment, so they underwent endoscopic sinus surgery. Patient's sinus culture has grown MRSA and Pseudomonas. Patient initially did well after the surgery but was readmitted for pulmonary exacerbation. […] Patient was treated with ciprofloxacin for Pseudomonas. […] Nasal endoscopy was not performed in the child due to their young age. The patient was then treated with zileuton 600 mg BID after a normal liver function test. Patient's coughing improved with the zileuton treatment.

[3] = biological target: T1, 5-lipoxygenase (Homo sapiens, UniProt P09917); conditions: statement 'recently been found', no data given; cited from earlier work
T1 sequence (P09917 1-674): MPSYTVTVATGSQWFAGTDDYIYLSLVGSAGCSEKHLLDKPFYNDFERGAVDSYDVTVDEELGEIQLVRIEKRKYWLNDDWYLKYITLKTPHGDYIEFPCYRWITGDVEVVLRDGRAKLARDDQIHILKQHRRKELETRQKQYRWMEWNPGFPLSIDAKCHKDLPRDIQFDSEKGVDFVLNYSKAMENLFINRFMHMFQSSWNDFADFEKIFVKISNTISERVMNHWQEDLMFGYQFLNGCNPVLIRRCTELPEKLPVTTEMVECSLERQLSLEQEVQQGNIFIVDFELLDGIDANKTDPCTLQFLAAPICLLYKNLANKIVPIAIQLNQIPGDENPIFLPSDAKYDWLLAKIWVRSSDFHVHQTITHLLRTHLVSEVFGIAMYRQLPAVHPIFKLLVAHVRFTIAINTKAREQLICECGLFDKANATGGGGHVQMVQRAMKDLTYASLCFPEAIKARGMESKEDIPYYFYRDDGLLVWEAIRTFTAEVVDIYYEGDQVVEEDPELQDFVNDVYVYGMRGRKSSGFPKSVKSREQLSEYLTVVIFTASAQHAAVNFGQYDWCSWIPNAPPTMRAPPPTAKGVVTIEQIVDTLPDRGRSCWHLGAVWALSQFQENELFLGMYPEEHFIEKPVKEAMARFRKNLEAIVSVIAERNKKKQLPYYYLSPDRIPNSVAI

[4] = zileuton 1200 mg BID oral, two months later, one patient
[5] = treatments given before zileuton (ciprofloxacin for Pseudomonas; inhaled dornase alfa)

**Q.** What does the source list for `CC(c1cc2ccccc2s1)N(O)C(N)=O` (racemic) [zileuton, (±)-1-(1-Benzo[b]thien-2-ylethyl)-1-hydroxyurea]?
**A.** nasal congestion and smell [1, 4]: improved; nasal endoscopy: polyps [1, 4]: decreased polyps; nasal endoscopy: purulence ([1]; zileuton 1200 mg BID oral, two months later, prescribed ciprofloxacin not taken): no purulence; adverse effect: coughing ([1]; zileuton 1200 mg BID, dose then decreased to 600 mg BID): increased coughing; coughing ([2]; zileuton 600 mg BID, one patient): improved

**Q.** Which “efficacy in inhibiting 5-lipoxygenase activity, compared between enantiomers and racemate” value [3] does the source give for `C[C@H](c1cc2ccccc2s1)N(O)C(N)=O` [(R)-zileuton] here?
**A.** more efficacious than either of (S)-zileuton and racemic zileuton

**Q.** Which “nasal symptoms after return of sinus infection” value ([1]; oral ciprofloxacin, after zileuton was discontinued) does the source give for `O=C(O)c1cn(C2CC2)c2cc(N3CCNCC3)c(F)cc2c1=O` [ciprofloxacin] here?
**A.** initial improvement but eventually had return of their nasal symptoms

**Q.** What about the coughing [2, 5] of the same molecule?
**A.** initially improved but gradually returned

B1: dornase alfa (protein, UniProt P24855 23-282, looked up)
Deoxyribonuclease-1: LKIAAFNIQTFGETKMSNATLVSYIVQILSRYDIALVQEVRDSHLTAVGKLLDNLNQDAPDTYHYVVSEPLGRNSYKERYLFVYRPDQVSAVDSYYYDDGCEPCGNDTFNREPAIVRFFSRFTEVREFAIVPLHAAPGDAVAEIDALYDVYLDVQEKWGLEDVMLMGDFNAGCSYVRPSQWSSIRLWTSPTFQWLIPDSADTTATPTHCAYDRIVVAGMLLRGAVVPDSALPFNFQAAYGLSDQLAQAISDHYPVEVMLK
notes: inhaled dornase alfa, part of aggressive medical treatment
**Q.** Which coughing [2, 5] does the source give for B1 here?
**A.** continued to have coughing
